# Reference: ChEMBL document CHEMBL1201862, “PubChem BioAssay data set” (2004)
# Active and inactive are the calls of the source.
# What was measured:
# [1] = target: T1, Corticotropin-releasing factor receptor 2/Corticotropin-releasing factor-binding protein (Homo sapiens, UniProt P24387+Q13324); assay: Dose Response confirmation of uHTS hits for small molecule antagonists of the CRF-binding protein and CRF-R2 receptor complex.; type: functional; conditions: read-out: IC50_Mean
# T1 sequence (Q13324 whole entry): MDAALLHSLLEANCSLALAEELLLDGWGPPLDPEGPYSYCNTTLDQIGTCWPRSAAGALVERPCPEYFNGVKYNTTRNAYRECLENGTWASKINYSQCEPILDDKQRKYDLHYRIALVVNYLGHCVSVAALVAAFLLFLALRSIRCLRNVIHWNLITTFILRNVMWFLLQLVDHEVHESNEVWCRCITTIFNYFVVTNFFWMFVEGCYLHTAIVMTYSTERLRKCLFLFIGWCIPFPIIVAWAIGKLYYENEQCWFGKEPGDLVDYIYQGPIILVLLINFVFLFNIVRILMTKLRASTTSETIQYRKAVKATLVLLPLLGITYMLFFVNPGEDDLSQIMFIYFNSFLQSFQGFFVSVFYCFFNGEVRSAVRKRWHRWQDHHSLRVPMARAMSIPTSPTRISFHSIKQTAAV
# T1 sequence (P24387 whole entry): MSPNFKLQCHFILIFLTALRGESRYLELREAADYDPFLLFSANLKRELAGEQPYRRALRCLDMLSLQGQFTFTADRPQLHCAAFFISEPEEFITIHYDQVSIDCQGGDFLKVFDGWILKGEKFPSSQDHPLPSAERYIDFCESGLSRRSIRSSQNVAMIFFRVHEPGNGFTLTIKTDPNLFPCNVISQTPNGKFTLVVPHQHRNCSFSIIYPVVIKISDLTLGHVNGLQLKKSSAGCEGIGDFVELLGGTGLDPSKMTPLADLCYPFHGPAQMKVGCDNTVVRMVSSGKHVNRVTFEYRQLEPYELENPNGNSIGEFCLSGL
# [2] = target: T1, Corticotropin-releasing factor receptor 2/Corticotropin-releasing factor-binding protein; assay: activators of CRF receptor 2 with binding protein – uHTS hits, confirmation (AID 602473); type: functional; conditions: read-out: EC50_Mean
# [3] = target: Large T antigen (Simian virus 40, UniProt P03070); type: functional, Betapolyomavirus macacae;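 note: Confirmatory-stage PubChem screen for compounds that inhibit SV40 T antigen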
# [4] = target: T2, Rac GTPase-activating protein 1 (Homo sapiens, UniProt Q9H0H5); assay: MgcRacGAP GTPase-activating activity inhibitors, confirmation, biochemical, ADP Hunter fluorescence, primary and confirmatory (AID 624330); type: functional
# T2 sequence (Q9H0H5 whole entry): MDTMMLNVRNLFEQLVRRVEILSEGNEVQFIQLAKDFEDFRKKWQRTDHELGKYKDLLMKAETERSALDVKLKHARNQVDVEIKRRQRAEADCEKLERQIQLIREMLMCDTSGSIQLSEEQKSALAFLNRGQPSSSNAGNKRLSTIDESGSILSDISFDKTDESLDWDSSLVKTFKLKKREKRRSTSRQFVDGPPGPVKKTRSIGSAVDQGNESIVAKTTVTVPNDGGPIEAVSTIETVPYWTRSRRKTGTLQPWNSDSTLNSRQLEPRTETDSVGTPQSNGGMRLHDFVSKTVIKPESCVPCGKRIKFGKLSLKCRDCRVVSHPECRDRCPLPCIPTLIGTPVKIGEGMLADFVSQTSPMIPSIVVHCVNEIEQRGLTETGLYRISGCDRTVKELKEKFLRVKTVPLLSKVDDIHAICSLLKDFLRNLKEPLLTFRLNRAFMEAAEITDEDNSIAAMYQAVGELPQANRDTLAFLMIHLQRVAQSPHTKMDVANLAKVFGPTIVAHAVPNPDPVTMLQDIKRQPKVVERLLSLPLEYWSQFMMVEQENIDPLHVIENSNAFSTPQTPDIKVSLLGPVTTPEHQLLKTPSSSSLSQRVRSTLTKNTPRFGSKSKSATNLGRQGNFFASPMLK
# [5] = system: Streptococcus sp. 'group A'; assay: growth inhibition of control SK(-) GAS strain, dose response, counter-screen for streptokinase expression inhibitor project, luminescence, kanamycin, BacTiterGlo, confirmation (AID 1900); type: functional, organism-based
# [6] = target: T3, Streptokinase A (Streptococcus pyogenes serotype M1, UniProt P10520); assay: S. pyogenes streptokinase expression inhibitors, potency, dose response, plasminogen activation absorbance, OD405 (AID 1914); type: functional, Streptococcus pyogenes M1 GAS;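 note: secreted streptokinase activity via plasminogen activation per viability signal from cell pellet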
# T3 sequence (P10520 whole entry): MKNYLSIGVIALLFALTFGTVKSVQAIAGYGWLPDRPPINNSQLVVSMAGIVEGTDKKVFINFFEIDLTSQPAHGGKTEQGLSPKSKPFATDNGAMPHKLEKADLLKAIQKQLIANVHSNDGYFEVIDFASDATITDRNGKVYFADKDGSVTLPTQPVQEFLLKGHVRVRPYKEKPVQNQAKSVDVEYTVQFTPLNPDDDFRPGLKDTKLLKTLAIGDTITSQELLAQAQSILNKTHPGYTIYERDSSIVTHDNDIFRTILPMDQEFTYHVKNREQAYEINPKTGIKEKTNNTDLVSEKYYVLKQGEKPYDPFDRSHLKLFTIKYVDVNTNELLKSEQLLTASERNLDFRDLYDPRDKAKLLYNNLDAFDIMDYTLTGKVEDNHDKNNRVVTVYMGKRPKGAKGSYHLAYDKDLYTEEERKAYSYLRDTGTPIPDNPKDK
# [7] = growth suppression of PTEN-null colon cells, dose response, cell-based, HCT116 PTEN knockout (AID 1047); type: functional;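 note: HCT116 colon tumor cells with PTEN knocked out; cells exposed to compound for 60 hours before readout; potency for loss of cell viability measured by luminescence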
# [8] = growth suppression of beta-catenin-knockout colon cells, dose response, cell-based, HCT116, human colon tumor (AID 1045); type: functional;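 note: HCT116 colon tumor cells with beta catenin knocked out; cells exposed to compound for 60 hours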
# [9] = system: Streptococcus; assay: Group A Streptococcus viability loss, dose response, counter-screen for streptokinase expression inhibitor project, luminescence, BacTiterGlo (AID 1915); type: functional, organism-based;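 note: potency for reduction of bacterial viability or growth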
# [10] = Luminescence Cell-Based Dose Retest to Confirm Inhibitors of Cancer Stem Cells. [Related pubchem assays (depositor defined):AID2717, AID2721]; type: functional; conditions: Homo sapiens
# [11] = system: H9c2; assay: cells; type: functional, cell-based; conditions: Rattus norvegicus, H9c2, Myocardium;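 note: confirmatory concentration-response retest of ultra-high-throughput screening hits for modulation of myocardial damage; cell death induced by hydrogen peroxide oxidative stress; compound pretreatment for 60 min then peroxide exposure for 2 h; potency is for protecting the cells against peroxide damage rather than for killing them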
# [12] = target: T4, Replicative DNA helicase DnaB (Mycobacterium tuberculosis, UniProt P9WMR3); assay: DnaB intein splicing inhibitors, dose response, biochemical, cell-free fluorescence (AID 449749); type: functional
# T4 sequence (P9WMR3 whole entry): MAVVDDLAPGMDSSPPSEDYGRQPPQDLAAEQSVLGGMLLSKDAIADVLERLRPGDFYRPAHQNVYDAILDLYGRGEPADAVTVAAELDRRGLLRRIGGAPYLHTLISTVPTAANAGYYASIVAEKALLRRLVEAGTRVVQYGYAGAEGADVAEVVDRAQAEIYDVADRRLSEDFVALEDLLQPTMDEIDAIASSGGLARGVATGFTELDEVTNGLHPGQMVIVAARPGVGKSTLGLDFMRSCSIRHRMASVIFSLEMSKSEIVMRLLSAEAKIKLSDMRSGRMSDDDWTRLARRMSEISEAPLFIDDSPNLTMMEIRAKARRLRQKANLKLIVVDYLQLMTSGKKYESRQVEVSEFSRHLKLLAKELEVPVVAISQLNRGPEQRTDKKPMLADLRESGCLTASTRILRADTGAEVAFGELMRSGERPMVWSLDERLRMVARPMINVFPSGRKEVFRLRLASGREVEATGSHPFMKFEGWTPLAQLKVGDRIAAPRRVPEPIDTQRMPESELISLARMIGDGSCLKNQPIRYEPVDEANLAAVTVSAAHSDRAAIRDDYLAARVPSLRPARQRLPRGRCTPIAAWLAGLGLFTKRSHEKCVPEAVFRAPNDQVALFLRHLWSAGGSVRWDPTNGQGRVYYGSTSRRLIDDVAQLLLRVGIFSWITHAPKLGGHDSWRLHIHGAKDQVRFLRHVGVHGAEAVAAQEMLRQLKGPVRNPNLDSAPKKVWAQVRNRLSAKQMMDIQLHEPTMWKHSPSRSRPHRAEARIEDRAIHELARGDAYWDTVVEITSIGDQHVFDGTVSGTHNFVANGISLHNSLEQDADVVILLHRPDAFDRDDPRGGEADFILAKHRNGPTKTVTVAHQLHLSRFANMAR
# [13] = target: T5, Protein RecA (Mycobacterium tuberculosis, UniProt P9WHJ3); assay: Fluorescence Cell-Free Homogeneous Dose Retest to Identify Inhibitors of RecA-Intein Splicing Activity. [Related pubchem assays (depositor defined):AID2097, AID2223, AID489010, AID492950]; type: functional
# T5 sequence (P9WHJ3 whole entry): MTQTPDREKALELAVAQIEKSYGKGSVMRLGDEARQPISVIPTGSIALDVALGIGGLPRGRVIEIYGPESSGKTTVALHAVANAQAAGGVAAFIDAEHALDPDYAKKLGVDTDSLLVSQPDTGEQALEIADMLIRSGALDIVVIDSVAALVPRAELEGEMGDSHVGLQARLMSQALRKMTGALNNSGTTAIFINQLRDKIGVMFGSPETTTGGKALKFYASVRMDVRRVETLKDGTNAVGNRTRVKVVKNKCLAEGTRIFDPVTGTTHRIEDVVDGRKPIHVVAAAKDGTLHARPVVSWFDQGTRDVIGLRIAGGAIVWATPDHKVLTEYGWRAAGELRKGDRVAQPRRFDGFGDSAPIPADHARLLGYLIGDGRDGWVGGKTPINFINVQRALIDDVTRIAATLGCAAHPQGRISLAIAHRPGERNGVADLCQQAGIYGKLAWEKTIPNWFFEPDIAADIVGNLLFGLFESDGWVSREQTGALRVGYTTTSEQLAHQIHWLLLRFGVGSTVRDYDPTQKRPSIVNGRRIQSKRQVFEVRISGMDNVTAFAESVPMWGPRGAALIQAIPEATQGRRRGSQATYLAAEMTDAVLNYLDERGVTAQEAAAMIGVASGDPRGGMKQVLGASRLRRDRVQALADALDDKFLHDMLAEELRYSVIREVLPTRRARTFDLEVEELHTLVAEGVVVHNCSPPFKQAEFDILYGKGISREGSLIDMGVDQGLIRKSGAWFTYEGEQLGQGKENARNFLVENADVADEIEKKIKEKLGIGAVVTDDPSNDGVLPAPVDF
# [14] = HEp-2 cell cytotoxicity, dose response, cytotoxicity control for RSV inhibitor project, HTS (AID 2410); type: functional; conditions: human respiratory syncytial virus
# Chain of Large T antigen (P03070 whole entry): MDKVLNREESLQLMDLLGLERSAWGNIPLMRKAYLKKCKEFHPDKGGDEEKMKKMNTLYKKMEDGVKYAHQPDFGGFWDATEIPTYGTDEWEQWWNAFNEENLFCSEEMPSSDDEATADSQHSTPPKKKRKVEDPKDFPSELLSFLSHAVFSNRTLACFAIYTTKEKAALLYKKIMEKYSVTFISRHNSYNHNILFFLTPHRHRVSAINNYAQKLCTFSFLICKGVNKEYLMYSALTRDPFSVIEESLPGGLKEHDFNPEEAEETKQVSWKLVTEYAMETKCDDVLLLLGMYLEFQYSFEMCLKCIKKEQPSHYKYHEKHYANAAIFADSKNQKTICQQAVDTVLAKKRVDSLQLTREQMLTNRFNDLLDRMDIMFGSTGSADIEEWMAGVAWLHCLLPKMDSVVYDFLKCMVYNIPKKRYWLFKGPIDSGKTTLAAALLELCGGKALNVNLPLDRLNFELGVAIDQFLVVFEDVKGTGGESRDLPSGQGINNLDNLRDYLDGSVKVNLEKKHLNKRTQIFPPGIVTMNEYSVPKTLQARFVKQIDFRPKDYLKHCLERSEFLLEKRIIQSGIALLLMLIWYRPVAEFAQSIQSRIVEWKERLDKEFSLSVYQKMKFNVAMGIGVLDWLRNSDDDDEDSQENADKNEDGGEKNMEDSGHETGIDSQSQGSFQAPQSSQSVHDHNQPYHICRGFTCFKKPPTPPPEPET
smiles,measurement,setting,value
CS(=O)(=O)N1CCN(C(=O)COc2ccc3ccccc3c2)CC1,IC50,[1],> 47.1 µM (inactive)
same,EC50,[2],> 53 µM (inactive)
Cc1cccc(NC(=O)Cc2ccc(NC3=NC4CS(=O)(=O)CC4S3)cc2)c1 (stereo unspecified),IC50,[1],> 47.1 µM (inactive)
same,EC50,[2],> 53 µM (inactive)
COc1cc(/C=N\NC(=O)c2c(C)nc3cc(C)ccn23)ccc1O,IC50,[3],13.4 µM (active)
same,IC50,[4],33.3 µM (active)
CCS(=O)(=O)Nc1ccc(-c2cc(-c3ccccc3)c3cc(C)ccc3n2)cc1,EC50,[5],7.31 µM (active)
same,EC50,[6],> 150 µM (not active)
same,EC50,[7],27.6 µM (active)
same,EC50,[8],24.1 µM (active)
same,EC50,[9],7.65 µM (active)
same,AC50,[10],3.42 µM (active)
CCN1C(=O)/C(=C/c2nc3ccccc3c(=O)n2-c2ccccc2)c2ccccc21,IC50,[11],> 79 µM (inactive)
CC(NC(=O)Cn1nc(C(=O)O)c2ccccc2c1=O)c1ccccc1 (stereo unspecified),IC50,[11],18.3 µM (active)
COc1ccc(-c2cc(C(=O)NC3CCCC3)c3ccccc3n2)cc1OC,IC50,[1],> 47.1 µM (inactive)
same,EC50,[2],> 53 µM (inactive)
CN(C(=O)COC(=O)CCc1nc2ccccc2c(=O)[nH]1)C1CCS(=O)(=O)C1 (stereo unspecified),IC50,[1],40.1 µM (active)
same,EC50,[2],> 53 µM (inactive)
C/C(CC(=O)Nc1ccc(N(C)C)cc1)=N\NC(=O)c1ccc([N+](=O)[O-])cc1Cl,IC50,[3],9.88 µM (active)
same,IC50,[4],66.7 µM (active)
CCOc1ccc2nc(O)c(CN(CCO)C3(c4nnnn4C4CCCCC4)CCCCC3)cc2c1,IC50,[11],26.4 µM (active)
Cc1cc(F)ccc1S(=O)(=O)N(C(=O)c1ccncc1)c1ccc(OC(=O)c2ccncc2)cc1,IC50,[3],50.7 µM (active)
same,AC50,[12],4.53 µM (active)
same,EC50,[13],14.1 µM (active)
O=C(CN(c1cccc(C(F)(F)F)c1)S(=O)(=O)c1ccc(Cl)c([N+](=O)[O-])c1)NCc1ccccc1Cl,CC50,[14],> 50 µM (active)
same,AC50,[10],1.72 µM (active)
